Reference: PMC9691367, “The PROTAC selectively degrading Bcl-xL represents a novel Hedgehog pathway inhibitor with capacity of combating resistance to Smoothened inhibitors while sparing bone growth” (Theranostics, 2022)
“And” between values parts separate entries of the source, which are not always exact repeats. Equal entries are not always repeated. Where two headings read alike, the source gives them in different places.

What was measured:
[1] = Pharmacokinetic study in male ICR mice; format: in vivo, mouse; conditions: for MRT last: read-out: MRT(0-t); for MRT inf: read-out: MRT(0-∞)
Procedure: Standard pharmacokinetic (PK) studies were conducted using male ICR Mice. A single 2 mg/kg intravenous (i.v.) injection, 10 mg/kg intraperitoneal (i.p.) injection or 10 mg/kg oral (p.o.) administration of SIAIS361034 was evaluated. Plasma concentrations of SIAIS361034 at each of the 7 time points (0.25 h, 0.5 h, 1 h, 2 h, 4 h, 8 h, and 24 h post dosing) are the average values from 3 animals.

Bcl-xL/CRBN = biological target: T1, Bcl-xL/CRBN (Homo sapiens, UniProt Q07817+Q96SW2); test: HTRF assay for ternary complex formation; format: binding
T1 construct: purchased Cisbio 63ADK000CB37PEG
Procedure: Bcl-xL/CRBN ternary HTRF assay was used to monitor ternary complex formation between target protein, PROTAC and E3 ligase. Bcl-xL/CRBN PROTAC BINDING ASSAY KITS was purchased from Cisbio (#63ADK000CB37PEG). 200 nL compounds were transferred into 384 assay plate, followed by centrifuging at 1000 RPM. Then 5 µL Bcl-xL and CRBN protein were added into each assay well. After incubation at 25 °C for 15 min, 10 µL Tag2-Eu&Tag1-d2 working solution was added into each assay well and incubated 25 °C for 120 min. The Relative HTRF value was read with BMG (PHERAstar FSX).

Mcl-1 = Mcl-1 (Homo sapiens, UniProt Q07820); test: Competitive fluorescence polarization assay, Mcl-1 / FAM-Bim; format: binding; conditions: Mcl-1 100 nM, FAM-Bim 5 nM
Procedure: Competitive fluorescence polarization assays were carried out in black-walled plates in assay buffer (20 mM Na2HPO4 ·12H2O, 20 mM NaH2PO4·12H2O, 1 mM EDTA, 50 mM NaCl, 0.05% PF-68). The use of protein/peptide probe pairs was as follows: Bcl-xL (5 nM) and FAM-Bad (5 nM), Bcl-2 (100 nM) and FAM-Bax (5 nM), Mcl-1 (100 nM) and FAM-Bim (5 nM). Assay buffer, proteins, drugs, and peptides were added to the assay plates sequentially. The assay plates were slightly shaken for 3 min and incubated for 30 min at room temperature. The fluorescence polarization was measured on a Synergy 2 reader (BioTek).

NF-κB signaling pathway = test: NF-κB luciferase reporter assay in 293T cells; format: cell-based; conditions: TNF-α 10 ng/mL, 6 h, SIAIS361034 10 μM, BAY 11-7082 20 μM
Procedure: Cells seeded in 96-well plates were treated with various treatments as indicated. The luciferase activity in the cell lysates was measured using Dual-Luciferase Reporter Assay System (Promega, Madison, WI, USA) according to the manufacturer's instructions in a luminometer (Molecular Devices, Sunnyvale, CA). The firefly luciferase values were normalized to Renilla values. […]
Data represent mean ± SD (n = 3). (B) NF-κB luciferase analysis of the effect of SIAIS361034 on NF-κB signaling pathway in 293T cells.The 293T cells were transfected with NF-κB luciferase reporter and Renilla-TK plasmids and […]
μM) for 6 h. Data represent mean ± SD (n = 3). […]
Data represent mean ± SD (n = 3).
(1 picture or pasted object on this page, not shown here)

Gli1 and Ptch1 mRNA = test: RT-qPCR of Hh target genes in NIH-3T3 cells exposed to SAG; format: cell-based; conditions: 36 h
Procedure: Total RNA was extracted from cells or tissues using the NucleoSpin RNA kit (#740955.50, TaKaRa). RNA reverse transcriptions were performed with PrimeScript RT Reagent Kit with RNase inhibitor (#RR037B, TaKaRa). The quantitative PCR amplifications were performed in triplicate with TB Green Premix Ex Taq (Tli RNase H Plus) (#RR420A, TaKaRa) in an iCycler iQ system (Bio-Rad; Hercules, CA). Relative gene expression for interested genes was calculated using the 2^-ΔΔCt method and normalized to mGUSB expression. Primer sequences for RT-qPCR are as follows: mGli1 forward (5′-[…]-3′), reverse (5′-[…]-3′); mPtch1 forward (5′-[…]-3′), reverse (5′-[…]-3′); mGUSB forward (5′-[…]-3′), reverse (5′-[…]-3′).

[2] = male ICR mice, 2 mg/kg IV, individual animals (Mouse 1-3), 2 mg/kg
[3] = male ICR mice, 10 mg/kg IP, individual animals (Mouse 1-3), 10 mg/kg
[4] = male ICR mice, 10 mg/kg PO, individual animals (Mouse 1, 3; Mouse 2 NA), 10 mg/kg
[5] = male ICR mice, 10 mg/kg PO, individual animals (Mouse 1-3), 10 mg/kg
[6] = male, ICR, mouse, plasma, ip, 10 mg/kg, male ICR mice, 10 mg/kg IP, individual animals (Mouse 1-3)
[7] = male, ICR, mouse, plasma, ip, 10 mg/kg, male ICR mice, 10 mg/kg IP, mean of 3 animals
[8] = male, ICR, mouse, plasma, iv, 2 mg/kg, male ICR mice, 2 mg/kg IV, individual animals (Mouse 1-3)
[9] = male, ICR, mouse, plasma, iv, 2 mg/kg, male ICR mice, 2 mg/kg IV, mean of 3 animals
[10] = male, ICR, mouse, plasma, po, 10 mg/kg, male ICR mice, 10 mg/kg PO, mean

Mcl-1, sequence (Q07820 whole entry, species assumed): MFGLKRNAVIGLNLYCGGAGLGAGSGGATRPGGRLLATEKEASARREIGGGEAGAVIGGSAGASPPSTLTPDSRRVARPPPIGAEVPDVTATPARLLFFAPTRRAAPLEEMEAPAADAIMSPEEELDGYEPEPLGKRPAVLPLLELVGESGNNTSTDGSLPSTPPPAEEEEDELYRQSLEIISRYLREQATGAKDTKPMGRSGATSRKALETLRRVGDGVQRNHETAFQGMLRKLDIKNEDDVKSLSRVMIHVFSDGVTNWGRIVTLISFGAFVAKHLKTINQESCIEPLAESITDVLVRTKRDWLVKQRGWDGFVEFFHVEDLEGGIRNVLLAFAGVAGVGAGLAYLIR
T1 sequence (Q07817 whole entry, species assumed): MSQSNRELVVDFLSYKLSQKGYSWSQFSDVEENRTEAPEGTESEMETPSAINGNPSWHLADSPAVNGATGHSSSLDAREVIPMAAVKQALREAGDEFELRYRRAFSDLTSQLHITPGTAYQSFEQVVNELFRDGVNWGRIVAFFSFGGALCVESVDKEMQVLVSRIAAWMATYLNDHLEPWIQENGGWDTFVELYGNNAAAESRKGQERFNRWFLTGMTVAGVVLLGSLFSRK
T1 sequence (Q96SW2 whole entry, species assumed): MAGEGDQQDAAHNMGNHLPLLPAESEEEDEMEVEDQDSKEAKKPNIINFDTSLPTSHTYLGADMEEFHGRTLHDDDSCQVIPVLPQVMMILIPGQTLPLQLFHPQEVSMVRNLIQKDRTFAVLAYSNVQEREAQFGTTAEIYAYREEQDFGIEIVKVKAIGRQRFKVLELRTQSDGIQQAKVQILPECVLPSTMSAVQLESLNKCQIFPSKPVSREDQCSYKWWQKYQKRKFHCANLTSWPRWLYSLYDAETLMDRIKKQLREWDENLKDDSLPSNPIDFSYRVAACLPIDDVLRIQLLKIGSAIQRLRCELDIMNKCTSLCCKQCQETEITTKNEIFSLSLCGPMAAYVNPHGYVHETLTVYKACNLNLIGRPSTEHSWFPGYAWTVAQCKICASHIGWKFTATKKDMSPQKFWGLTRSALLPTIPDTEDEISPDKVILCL

CC1(C)CCC(c2ccc(Cl)cc2)=C(CN2CCN(c3ccc(C(=O)NS(=O)(=O)c4ccc(NCCCN5CCN(CCCC#Cc6cccc7c6CN(C6CCC(=O)NC6=O)C7=O)CC5)c(S(=O)(=O)C(F)(F)F)c4)cc3)CC2)C1 (stereo not shown) [SIAIS361034]
AUC(0-t) [1, 2]: 6203 ng·h/mL and 4263 ng·h/mL
AUC(0-∞) [1, 2]: 6222 ng·h/mL and 4305 ng·h/mL
C0 [1, 2]: 34215 ng/mL and 79513 ng/mL and 43287 ng/mL
Cl [1, 2]: 5.35 mL/min/kg and 7.75 mL/min/kg
Cmax [1, 2]: 17900 ng/mL and 13200 ng/mL
MRT(0-t) [1, 2]: 0.30 h and 0.31 h
MRT(0-∞) [1, 2]: 0.40 h and 0.42 h
T1/2 [1, 2]: 1.79 h and 6.38 h and 2.29 h
Vss [1, 2]: 0.13 L/kg and 0.193 L/kg
Vz [1, 2]: 2.957 L/kg and 1.535 L/kg
AUC(0-t) [1, 3]: 20871 ng·h/mL and 15558 ng·h/mL
AUC(0-∞) [1, 3]: 22061 ng·h/mL and 16141 ng·h/mL
Cmax [1, 3]: 9700 ng/mL and 4920 ng/mL
F [1, 3]: 71.4% and 96.4% and 70.5%
MRT(0-t) [1, 3]: 5.16 h and 4.24 h
MRT(0-∞) [1, 3]: 6.68 h and 5.22 h
T1/2 [1, 3]: 5.23 h and 5.94 h
Tmax ([1]; male ICR mice, 10 mg/kg IP, individual animals (Mouse 1-3; 0.50 twice), 10 mg/kg): 0.50 h
AUC(0-∞) [1, 4]: 305 ng·h/mL and 111 ng·h/mL
MRT(0-∞) [1, 4]: 10.30 h and 2.82 h
T1/2 [1, 4]: 8.98 h and 2.39 h
F ([1]; male ICR mice, 10 mg/kg PO, individual animals (Mouse 1, 3; Mouse 2 and mean NA), 10 mg/kg): 1.33% and 0.484%
AUC(0-t) [1, 5]: 265 ng·h/mL and 213 ng·h/mL and 101 ng·h/mL
Cmax [1, 5]: 54.9 ng/mL and 49.1 ng/mL
MRT(0-t) [1, 5]: 6.29 h and 2.88 h and 2.01 h
Tmax ([1]; male ICR mice, 10 mg/kg PO, individual animals (Mouse 1-3; 1.00 twice), 10 mg/kg): 2.00 h
AUC(0-inf) [1, 6]: 16300 ng·h/mL
half-life [1, 6]: 6.44 h
AUC(0-t) ([1]; male, ICR, mouse, plasma, ip, 10 mg/kg, male ICR mice, 10 mg/kg IP, individual animals (Mouse 1-3), read-out: AUC(0-t)): 15500 ng·h/mL
Cmax ([1]; male, ICR, mouse, plasma, ip, 10 mg/kg, male ICR mice, 10 mg/kg IP, individual animals (Mouse 1-3), read-out: Cmax): 7630 ng/mL
MRT last [1, 6]: 3.84 h
MRT inf [1, 6]: 5.25 h
Tmax ([1]; male, ICR, mouse, plasma, ip, 10 mg/kg, male ICR mice, 10 mg/kg IP, individual animals (Mouse 1-3; 0.50 twice), read-out: Tmax): 1 h
AUC(0-inf) [1, 7]: 18200 ng·h/mL
bioavailability [1, 7]: 79.4%
half-life [1, 7]: 5.87 h
AUC(0-t) ([1]; male, ICR, mouse, plasma, ip, 10 mg/kg, male ICR mice, 10 mg/kg IP, mean of 3 animals, read-out: AUC(0-t)): 17300 ng·h/mL
Cmax ([1]; male, ICR, mouse, plasma, ip, 10 mg/kg, male ICR mice, 10 mg/kg IP, mean of 3 animals, read-out: Cmax): 7420 ng/mL
MRT last [1, 7]: 4.41 h
MRT inf [1, 7]: 5.72 h
Tmax ([1]; male, ICR, mouse, plasma, ip, 10 mg/kg, male ICR mice, 10 mg/kg IP, mean of 3 animals, read-out: Tmax): 0.67 h
AUC(0-inf) [1, 8]: 3200 ng·h/mL
clearance [1, 8]: 10.4 mL/min/kg
AUC(0-t) ([1]; male, ICR, mouse, plasma, iv, 2 mg/kg, male ICR mice, 2 mg/kg IV, individual animals (Mouse 1-3), read-out: AUC(0-t)): 3190 ng·h/mL
Cmax ([1]; male, ICR, mouse, plasma, iv, 2 mg/kg, male ICR mice, 2 mg/kg IV, individual animals (Mouse 1-3), read-out: Cmax): 10300 ng/mL
MRT last [1, 8]: 0.22 h
MRT inf [1, 8]: 0.26 h
Vd ([1]; male, ICR, mouse, plasma, iv, 2 mg/kg, male ICR mice, 2 mg/kg IV, individual animals (Mouse 1-3), read-out: Vss): 0.163 L/kg
Vd ([1]; male, ICR, mouse, plasma, iv, 2 mg/kg, male ICR mice, 2 mg/kg IV, individual animals (Mouse 1-3), read-out: Vz): 1.61 L/kg
Tmax ([1]; male, ICR, mouse, plasma, iv, 2 mg/kg, male ICR mice, 2 mg/kg IV, individual animals (Mouse 1-3, same value), read-out: Tmax): 0.083 h
AUC(0-inf) [1, 9]: 4580 ng·h/mL
clearance [1, 9]: 7.83 mL/min/kg
half-life [1, 9]: 3.49 h
AUC(0-t) ([1]; male, ICR, mouse, plasma, iv, 2 mg/kg, male ICR mice, 2 mg/kg IV, mean of 3 animals, read-out: AUC(0-t)): 4550 ng·h/mL
C0 ([1]; male, ICR, mouse, plasma, iv, 2 mg/kg, male ICR mice, 2 mg/kg IV, mean of 3 animals, read-out: C0): 52300 ng/mL
Cmax ([1]; male, ICR, mouse, plasma, iv, 2 mg/kg, male ICR mice, 2 mg/kg IV, mean of 3 animals, read-out: Cmax): 13800 ng/mL
MRT last [1, 9]: 0.28 h
MRT inf [1, 9]: 0.36 h
Tmax ([1]; male, ICR, mouse, plasma, iv, 2 mg/kg, male ICR mice, 2 mg/kg IV, mean of 3 animals, read-out: Tmax): 0.083 h
Vd ([1]; male, ICR, mouse, plasma, iv, 2 mg/kg, male ICR mice, 2 mg/kg IV, mean of 3 animals, read-out: Vss): 0.162 L/kg
Vd ([1]; male, ICR, mouse, plasma, iv, 2 mg/kg, male ICR mice, 2 mg/kg IV, mean of 3 animals, read-out: Vz): 2.03 L/kg
Cmax ([1]; male, ICR, mouse, plasma, po, 10 mg/kg, male ICR mice, 10 mg/kg PO, individual animals (Mouse 1-3), read-out: Cmax): 50.9 ng/mL
Tmax ([1]; male, ICR, mouse, plasma, po, 10 mg/kg, male ICR mice, 10 mg/kg PO, individual animals (Mouse 1-3; 1.00 twice), read-out: Tmax): 1 h
AUC(0-inf) [1, 10]: 208 ng·h/mL
half-life [1, 10]: 5.68 h
AUC(0-t) ([1]; male, ICR, mouse, plasma, po, 10 mg/kg, male ICR mice, 10 mg/kg PO, mean of 3 animals, read-out: AUC(0-t)): 193 ng·h/mL
Cmax ([1]; male, ICR, mouse, plasma, po, 10 mg/kg, male ICR mice, 10 mg/kg PO, mean of 3 animals, read-out: Cmax): 51.6 ng/mL
MRT last ([1]; male, ICR, mouse, plasma, po, 10 mg/kg, male ICR mice, 10 mg/kg PO, mean of 3 animals): 3.73 h
Tmax ([1]; male, ICR, mouse, plasma, po, 10 mg/kg, male ICR mice, 10 mg/kg PO, mean of 3 animals, read-out: Tmax): 1.33 h
MRT inf [1, 10]: 6.56 h
pharmacokinetic property, oral ([1]; mice, 10 mg/kg p.o.): poor pharmacokinetic property
plasma exposure ([1]; mice, single 10 mg/kg i.p. or 2 mg/kg i.v., over 24 h): good plasma exposure
Ternary complex formation with Bcl-xL and CRBN E3 ligase (Bcl-xL/CRBN): could form a stable ternary complex
Ki (Mcl-1): > 10 µM
NF-κB luciferase activity activated by TNF-α (NF-κB signaling pathway): no inhibitory activity
mRNA expression of Hh target genes Gli1 and Ptch1 activated by SAG (Gli1 and Ptch1 mRNA): significantly blocked
